Patent US20120016009A1, “Optimized Methods For Delivery Of DSRNA Targeting The PCSK9 Gene” (priority 2008, published 2012)
In the oligonucleotide strings, read from the 5' end, every base follows the letter of its sugar. An asterisk marks phosphorothioate; unmarked linkages are phosphodiester. Other units and linkages are bracketed, terminal groups are in braces. A string of capitals states the bases alone. d = 2'-deoxy (DNA); r = 2'-OH (RNA)

Tested on: PCSK9 mRNA
Assay: PCSK9 siRNA screening in HepG2 cells (lipofectamine 2000 transfection, PCSK9 mRNA by Quantigene, normalized to GAP-DH)
Type: cell-based, human
Details: for Mean percent remaining mRNA transcript at siRNA concentration/in cell type 3 nM/HepG2: 3 nM siRNA; for Mean percent remaining mRNA transcript at siRNA concentration/in cell type 30 nM/HepG2: 30 nM siRNA; for Mean percent remaining mRNA transcript at siRNA concentration/in cell type 100 nM/HepG2: 100 nM siRNA
Method: HuH-7 cells were obtained from JCRB Cell Bank (Japanese Collection of Research Bioresources) (Shinjuku, Japan, cat. No.: JCRB0403) Cells were cultured in Dulbecco's MEM (Biochrom AG, Berlin, Germany, cat. No. F0435) supplemented to contain 10% fetal calf serum (FCS) (Biochrom AG, Berlin, Germany, cat. No. S0115), Penicillin 100 U/ml, Streptomycin 100 μg/ml (Biochrom AG, Berlin, Germany, cat. No. A2213) and 2 mM L-Glutamin (Biochrom AG, Berlin, Germany, cat. No K0282) at 37° C. in an atmosphere with 5% CO2 in a humidified incubator (Heraeus HERAcell, Kendro Laboratory Products, Langenselbold, Germany) HepG2 and HeLa cells were obtained from American Type Culture Collection (Rockville, Md., cat. No. HB-8065) and cultured in MEM (Gibco Invitrogen, Karlsruhe, Germany, cat. No. 21090-022) supplemented to contain 10% fetal calf serum (FCS) (Biochrom AG, Berlin, Germany, cat. No. S0115), Penicillin 100 U/ml, Streptomycin 100 μg/ml (Biochrom AG, Berlin, Germany, cat. No. A2213), 1× Non Essential Amino Acids (Biochrom AG, Berlin, Germany, cat. No. K-0293), and 1 mM Sodium Pyruvate (Biochrom AG, Berlin, Germany, cat. No. L-0473) at 37° C. in an atmosphere with 5% CO2 in a humidified incubator (Heraeus HERAcell, Kendro Laboratory Products, Langenselbold, Germany).
For transfection with siRNA, HuH7, HepG2, or HeLa cells were seeded at a density of 2.0×10^4 cells/well in 96-well plates and transfected directly. Transfection of siRNA (30 nM for single dose screen) was carried out with lipofectamine 2000 (Invitrogen GmbH, Karlsruhe, Germany, cat. No. 11668-019) as described by the manufacturer.
24 hours after transfection HuH7 and HepG2 cells were lysed and PCSK9 mRNA levels were quantified with the Quantigene Explore Kit (Genosprectra, Dumbarton Circle Fremont, USA, cat. No. QG-000-02) according to the protocol. PCSK9 mRNA levels were normalized to GAP-DH mRNA. For each siRNA eight individual datapoints were collected. siRNA duplexes unrelated to PCSK9 gene were used as control. The activity of a given PCSK9 specific siRNA duplex was expressed as percent PCSK9 mRNA concentration in treated cells relative to PCSK9 mRNA concentration in cells treated with the control siRNA duplex.
Tables 1b and 2b (and FIG. 6A) summarize the results and provide examples of in vitro screens in different cell lines at different doses. Silencing of PCSK9 transcript was expressed as percentage of remaining transcript at a given dose.
Very active sequences are those that have less than 60% of transcript remaining after treatment with a dose less than or equal to 100 nM. Active sequences are those that have less than 90% transcript remaining after treatment with a high dose (100 nM).

Row | Substance | IC50 | Mean percent remaining mRNA transcript at siRNA concentration/in cell type 3 nM/HepG2 | Mean percent remaining mRNA transcript at siRNA concentration/in cell type 30 nM/HepG2 | Mean percent remaining mRNA transcript at siRNA concentration/in cell type 100 nM/HepG2
1 | AD-9573: PCSK9 siRNA (sense rArUrGrGrUrCrArCrCrGrArCrUrUrCrGrArGrAdT*dT; antisense rUrCrUrCrGrArArGrUrCrGrGrUrGrArCrCrArUdT*dT) | 1.6 nM | 42% | 36% | 
2 | AD-9574: PCSK9 siRNA (sense rCrUrGrCrCrArArGrGrGrArArGrGrGrCrArCrGdT*dT; antisense rCrGrUrGrCrCrCrUrUrCrCrCrUrUrGrGrCrArGdT*dT) |  |  | 74% | 
3 | AD-9575: PCSK9 siRNA (sense rCrCrGrCrUrGrCrCrGrGrCrArArCrUrUrCrCrGdT*dT; antisense rCrGrGrArArGrUrUrGrCrCrGrGrCrArGrCrGrGdT*dT) |  |  | 120% | 
4 | AD-9576: PCSK9 siRNA (sense rGrCrArGrArGrArCrUrGrArUrCrCrArCrUrUrCdT*dT; antisense rGrArArGrUrGrGrArUrCrArGrUrCrUrCrUrGrCdT*dT) |  |  | 47% | 
5 | AD-9577: PCSK9 siRNA (sense rCrArCrCrArArGrGrArGrGrCrArGrGrArUrUrCdT*dT; antisense rGrArArUrCrCrUrGrCrCrUrCrCrUrUrGrGrUrGdT*dT) |  | 31% | 33% | 
6 | AD-9578: PCSK9 siRNA (sense rCrArUrUrUrArUrCrUrUrUrUrGrGrGrUrCrUrGdT*dT; antisense rCrArGrArCrCrCrArArArArGrArUrArArArUrGdT*dT) |  |  | 61% | 49%
7 | AD-9579: PCSK9 siRNA (sense rArUrCrGrArGrGrArGrGrArCrUrCrCrUrCrUrGdT*dT; antisense rCrArGrArGrGrArGrUrCrCrUrCrCrUrCrGrArUdT*dT) |  |  | 113% | 
8 | AD-9580: PCSK9 siRNA (sense rCrCrUrGrCrGrCrGrUrGrCrUrCrArArCrUrGrCdT*dT; antisense rGrCrArGrUrUrGrArGrCrArCrGrCrGrCrArGrGdT*dT) |  |  | 112% | 
9 | AD-9581: PCSK9 siRNA (sense rUrGrCrGrCrGrUrGrCrUrCrArArCrUrGrCrCrAdT*dT; antisense rUrGrGrCrArGrUrUrGrArGrCrArCrGrCrGrCrAdT*dT) |  |  | 35% | 
10 | AD-9582: PCSK9 siRNA (sense rCrCrArGrCrArUrCrCrArCrGrCrUrUrCrCrUrGdT*dT; antisense rCrArGrGrArArGrCrGrUrGrGrArUrGrCrUrGrGdT*dT) |  |  | 37% | 
11 | AD-9583: PCSK9 siRNA (sense rCrCrCrArUrGrUrCrGrArCrUrArCrArUrCrGrAdT*dT; antisense rUrCrGrArUrGrUrArGrUrCrGrArCrArUrGrGrGdT*dT) |  |  | 42% | 
12 | AD-9584: PCSK9 siRNA (sense rCrCrCrUrGrGrCrGrGrGrUrGrGrGrUrArCrArGdT*dT; antisense rCrUrGrUrArCrCrCrArCrCrCrGrCrCrArGrGrGdT*dT) |  |  | 68% | 52%
13 | AD-9585: PCSK9 siRNA (sense rCrGrGrCrArArCrUrUrCrCrGrGrGrArCrGrArUdT*dT; antisense rArUrCrGrUrCrCrCrGrGrArArGrUrUrGrCrCrGdT*dT) |  |  | 83% | 
14 | AD-9586: PCSK9 siRNA (sense rGrArCrArUrCrArUrUrGrGrUrGrCrCrUrCrCrAdT*dT; antisense rUrGrGrArGrGrCrArCrCrArArUrGrArUrGrUrCdT*dT) |  |  | 104% | 81%
15 | AD-9587: PCSK9 siRNA (sense rArCrArUrUrUrArUrCrUrUrUrUrGrGrGrUrCrUdT*dT; antisense rArGrArCrCrCrArArArArGrArUrArArArUrGrUdT*dT) |  | 49% | 63% | 
16 | AD-9588: PCSK9 siRNA (sense rGrGrUrCrArCrCrGrCrUrGrCrCrGrGrCrArArCdT*dT; antisense rGrUrUrGrCrCrGrGrCrArGrCrGrGrUrGrArCrCdT*dT) |  |  | 66% | 
17 | AD-9589: PCSK9 siRNA (sense rCrArCrCrGrCrUrGrCrCrGrGrCrArArCrUrUrCdT*dT; antisense rGrArArGrUrUrGrCrCrGrGrCrArGrCrGrGrUrGdT*dT) |  |  | 85% | 67%
18 | AD-9590: PCSK9 siRNA (sense rArCrCrArArCrUrUrUrGrGrCrCrGrCrUrGrUrGdT*dT; antisense rCrArCrArGrCrGrGrCrCrArArArGrUrUrGrGrUdT*dT) |  |  | 122% | 
19 | AD-9591: PCSK9 siRNA (sense rArCrUrGrUrCrCrCrUrCrCrUrUrGrArGrCrArCdT*dT; antisense rGrUrGrCrUrCrArArGrGrArGrGrGrArCrArGrUdT*dT) |  |  | 95% | 75%
20 | AD-9592: PCSK9 siRNA (sense rCrCrUrArGrArCrArCrCrArGrCrArUrArCrArGdT*dT; antisense rCrUrGrUrArUrGrCrUrGrGrUrGrUrCrUrArGrGdT*dT) |  |  | 55% | 46%
21 | AD-9593: PCSK9 siRNA (sense rCrArGrGrGrUrCrArUrGrGrUrCrArCrCrGrArCdT*dT; antisense rGrUrCrGrGrUrGrArCrCrArUrGrArCrCrCrUrGdT*dT) |  |  | 55% | 
22 | AD-9594: PCSK9 siRNA (sense rGrCrUrGrCrCrGrGrCrArArCrUrUrCrCrGrGrGdT*dT; antisense rCrCrCrGrGrArArGrUrUrGrCrCrGrGrCrArGrCdT*dT) |  |  | 95% | 80%
23 | AD-9595: PCSK9 siRNA (sense rCrUrGrArGrGrArCrCrArGrCrGrGrGrUrArCrUdT*dT; antisense rArGrUrArCrCrCrGrCrUrGrGrUrCrCrUrCrArGdT*dT) |  | 32% | 31% | 
24 | AD-9596: PCSK9 siRNA (sense rGrArArGrArUrGrArGrUrGrGrCrGrArCrCrUrGdT*dT; antisense rCrArGrGrUrCrGrCrCrArCrUrCrArUrCrUrUrCdT*dT) |  |  | 37% | 
25 | AD-9597: PCSK9 siRNA (sense rArGrCrCrArArGrCrCrUrCrUrUrCrUrUrArCrUdT*dT; antisense rArGrUrArArGrArArGrArGrGrCrUrUrGrGrCrUdT*dT) | 0.04 nM | 21% | 23% | 
26 | AD-9598: PCSK9 siRNA (sense rCrCrUrGrGrUrGrGrArGrGrUrGrUrArUrCrUrCdT*dT; antisense rGrArGrArUrArCrArCrCrUrCrCrArCrCrArGrGdT*dT) |  |  | 83% | 69%
27 | AD-9599: PCSK9 siRNA (sense rUrUrCrUrGrGrArUrGrGrCrArUrCrUrArGrCrCdT*dT; antisense rGrGrCrUrArGrArUrGrCrCrArUrCrCrArGrArAdT*dT) |  |  | 139% | 
28 | AD-9600: PCSK9 siRNA (sense rGrUrCrGrUrGrCrUrGrGrUrCrArCrCrGrCrUrGdT*dT; antisense rCrArGrCrGrGrUrGrArCrCrArGrCrArCrGrArCdT*dT) |  |  | 112% | 
29 | AD-9601: PCSK9 siRNA (sense rArGrGrGrUrCrArUrGrGrUrCrArCrCrGrArCrUdT*dT; antisense rArGrUrCrGrGrUrGrArCrCrArUrGrArCrCrCrUdT*dT) |  |  | 111% | 
